Test results: US8598157B2, “5-alkynyl-pyridines” (Boehringer Ingelheim International GmbH, priority 2011, dated 2013)

How the values were obtained:
[1] = molecular target: PI3Kalpha (Homo sapiens (Human), UniProt P42336); assay: Inhibition of PI3Kalpha-induced PIP-2 phosphorylation (filter-binding assay); type: biochemical; conditions: 33P-ATP, p85alpha/His-p110alpha, read-out: IC50 PI3Kα
Summary of the method: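 Radiometric filter-binding assay: PI3Kα (25 ng/well) preincubated 20 min at room temperature with compound and PIP2-containing lipid vesicles plus phosphotyrosine PDGFRβ peptide. Reaction started with cold ATP (1 μM final) and [33P]-ATP and run 120 min at room temperature; filter-captured radioactivity counted, IC50 from duplicate dilution series.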

[2] = tested on: H460 cells; assay: alamarBlue H460 cell assay (antiproliferative/cytotoxicity); type: cell-based; conditions: NCI-H460; H460 human lung carcinoma cells
Summary of the method: (§1)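 Readout is alamarBlue reduction by metabolically active cells, measured fluorometrically (excitation 530-560 nm, emission 590 nm) after 8 h at 37 °C. Compounds are applied for 5-6 days from a top final concentration of 10 μM in 1:3 steps, tested in duplicate. EC50 is derived from blank-corrected signals.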

[3] = tested on: MB453 cells; assay: alamarBlue MB453 cell assay (antiproliferative/cytotoxicity); type: cell-based; conditions: Homo sapiens; MDA MB 453 breast cancer cell line
Summary of the method: as §1

[4] = tested on: U87 cells; assay: U87 cell assay (antiproliferative/cytotoxicity); type: cell-based; conditions: U-87MG human glioblastoma cells
Summary of the method: as §1

[5] = tested on: MCF7 cells; assay: alamarBlue MCF7 cell assay (antiproliferative/cytotoxicity); type: cell-based; conditions: MCF7 human breast cancer cell line
Summary of the method: as §1

[6] = tested on: BT474 cells; assay: alamarBlue BT474 cell assay (antiproliferative/cytotoxicity); type: cell-based; conditions: BT-474 human breast cancer cell line
Summary of the method: as §1

Sequence of PI3Kalpha (P42336 whole entry): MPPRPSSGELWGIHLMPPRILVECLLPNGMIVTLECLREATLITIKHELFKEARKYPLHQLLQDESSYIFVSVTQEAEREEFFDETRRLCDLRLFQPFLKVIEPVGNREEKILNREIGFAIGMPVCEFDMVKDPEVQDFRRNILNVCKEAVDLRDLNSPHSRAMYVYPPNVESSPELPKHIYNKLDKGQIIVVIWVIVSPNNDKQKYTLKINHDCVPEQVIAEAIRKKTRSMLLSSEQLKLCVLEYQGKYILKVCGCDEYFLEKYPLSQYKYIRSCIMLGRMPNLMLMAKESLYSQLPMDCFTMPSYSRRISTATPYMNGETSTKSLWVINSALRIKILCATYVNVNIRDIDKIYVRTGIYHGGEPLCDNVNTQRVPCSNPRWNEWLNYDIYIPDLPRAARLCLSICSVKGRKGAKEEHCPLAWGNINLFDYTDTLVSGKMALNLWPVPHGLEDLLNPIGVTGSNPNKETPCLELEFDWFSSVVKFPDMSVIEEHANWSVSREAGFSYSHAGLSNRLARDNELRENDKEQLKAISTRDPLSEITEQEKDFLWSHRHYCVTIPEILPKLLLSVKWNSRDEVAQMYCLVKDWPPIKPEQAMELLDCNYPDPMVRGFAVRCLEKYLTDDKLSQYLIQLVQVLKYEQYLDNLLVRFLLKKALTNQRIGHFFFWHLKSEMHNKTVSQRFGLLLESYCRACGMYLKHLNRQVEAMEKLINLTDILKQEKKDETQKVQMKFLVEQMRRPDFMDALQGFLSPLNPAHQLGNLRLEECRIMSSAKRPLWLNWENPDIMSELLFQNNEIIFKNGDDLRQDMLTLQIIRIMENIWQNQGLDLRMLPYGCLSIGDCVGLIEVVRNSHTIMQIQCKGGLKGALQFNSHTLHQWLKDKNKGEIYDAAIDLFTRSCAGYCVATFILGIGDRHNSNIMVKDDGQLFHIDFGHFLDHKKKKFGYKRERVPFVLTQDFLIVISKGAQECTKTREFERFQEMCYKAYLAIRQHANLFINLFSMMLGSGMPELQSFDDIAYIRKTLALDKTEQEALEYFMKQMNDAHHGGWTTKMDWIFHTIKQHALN

Row | Structure (SMILES) | IC50 [1] [nM] | EC50 [2] [nM] | EC50 [3] [nM] | EC50 [4] [nM] | EC50 [5] [nM] | EC50 [6] [nM]
1 | CCc1ncnc(N2CCOCC2)c1C#Cc1cnc(OC)c(NS(=O)(=O)c2ccccc2)c1 [Example I-26, N-[5-(4-Ethyl-6-morpholin-4-yl-pyrimidin-5-ylethynyl)-2-methoxy-pyridin-3-yl]-benzenesulfonamide] | 0.59 | 21 | 61 | 97 | 9 | 28
2 | Cc1ncc(C#Cc2c(C)ncnc2N2CCOCC2)cc1NS(=O)(=O)c1cccnc1 [Example I-54, Pyridine-3-sulfonic acid [2-methyl-5-(4-methyl-6-morpholin-4-yl-pyrimidin-5-ylethynyl)-pyridin-3-yl]-amide] | 1 | 553 | 274 | 581 | 44 | 949
3 | Cc1ncc(C#Cc2c(C)ncnc2N2CCOCC2)cc1NS(=O)(=O)c1cccs1 [Example I-10, Thiophene-2-sulfonic acid [2-methyl-5-(4-methyl-6-morpholin-4-yl-pyrimidin-5-ylethynyl)-pyridin-3-yl]-amide] | 0.72 | 42 | 113 | 126 | 67 | 116
4 | COc1ncc(C#Cc2c(C)ncnc2N2CCOCC2)cc1NS(=O)(=O)c1ccc(F)cc1F [Example I-29, 2,4-Difluoro-N-[2-methoxy-5-(4-methyl-6-morpholin-4-yl-pyrimidin-5-ylethynyl)-pyridin-3-yl]-benzenesulfonamide] | 0.44 | 11 | 28 | 84 | 3 | 10
5 | COc1cccc(S(=O)(=O)Nc2cc(C#Cc3c(C)ncnc3N3CCOCC3)cnc2C)c1 [Example I-4, 3-Methoxy-N-[2-methyl-5-(4-methyl-6-morpholin-4-yl-pyrimidin-5-ylethynyl)-pyridin-3-yl]-benzenesulfonamide] | 1 | 114 | 294 | 467 | 296 | 246
6 | Cc1ncc(C#Cc2c(C)ncnc2N2CCOCC2)cc1NS(=O)(=O)N1CCCC1 [Example I-64, Pyrrolidine-1-sulfonic acid [2-methyl-5-(4-methyl-6-morpholin-4-yl-pyrimidin-5-ylethynyl)-pyridin-3-yl]-amide] | 2 | 71 | 584 | 773 | 59 | 5950
7 | Cc1ncc(C#Cc2c(C)ncnc2N2CCOCC2)cc1NS(=O)(=O)C(C)C [Example I-38, Propane-2-sulfonic acid [2-methyl-5-(4-methyl-6-morpholin-4-yl-pyrimidin-5-ylethynyl)-pyridin-3-yl]-amide] | 2 | 829 | 642 | 836 | 304 | 1220
8 | Cc1ncc(C#Cc2c(C)ncnc2N2CCOCC2)cc1NS(C)(=O)=O [Example I-37, N-[2-Methyl-5-(4-methyl-6-morpholin-4-yl-pyrimidin-5-ylethynyl)-pyridin-3-yl]-methanesulfonamide] | 1 | 903 | 318 | 966 | 134 | 416
9 | CCc1ncnc(N(C)C)c1C#Cc1cnc(C)c(NS(C)(=O)=O)c1 [Example I-32, N-[5-(4-Dimethylamino-6-ethyl-pyrimidin-5-ylethynyl)-2-methyl-pyridin-3-yl]-methanesulfonamide] | 8 | 1210 | 656 | 1290 | 617 | 1880
10 | Cc1ncc(C#Cc2c(C)ncnc2N2CCOCC2)cc1NS(=O)(=O)c1ccc(F)cc1F [Example I-41, 2,4-Difluoro-N-[2-methyl-5-(4-methyl-6-morpholin-4-yl-pyrimidin-5-ylethynyl)-pyridin-3-yl]-benzenesulfonamide] | 0.51 | 146 | 102 | 287 | 19 | 69
11 | Cc1ncc(C#Cc2c(C)ncnc2N(C)C2CCOCC2)cc1NS(=O)(=O)c1ccc(F)cc1F [Example I-16, 2,4-Difluoro-N-(2-methyl-5-{4-methyl-6-[methyl-(tetrahydro-pyran-4-yl)-amino]-pyrimidin-5-ylethynyl}-pyridin-3-yl)-benzenesulfonamide] | 0.86 | 226 | 397 | 839 | 118 | 309
12 | Cc1ncc(C#Cc2c(C)ncnc2N2CCOCC2)cc1NS(=O)(=O)c1ccc(Cl)s1 [Example I-52, 5-Chloro-thiophene-2-sulfonic acid [2-methyl-5-(4-methyl-6-morpholin-4-yl-pyrimidin-5-ylethynyl)-pyridin-3-yl]-amide] | 0.47 | 274 | 298 | 443 | 39 | 224
13 | Cc1ncnc(N2CCOCC2)c1C#Cc1cncc(NS(=O)(=O)c2ccc(F)cc2F)c1 [Example I-20, 2,4-Difluoro-N-[5-(4-methyl-6-morpholin-4-yl-pyrimidin-5-ylethynyl)-pyridin-3-yl]-benzenesulfonamide] | 0.46 | 391 | 281 | 521 | 22 | 153
14 | Cc1ncnc(N2CCOCC2)c1C#Cc1cncc(NS(=O)(=O)c2cccnc2)c1 [Example I-22, Pyridine-3-sulfonic acid [5-(4-methyl-6-morpholin-4-yl-pyrimidin-5-ylethynyl)-pyridin-3-yl]-amide] | 0.8 | 4500 | 1420 | 10000 | 1380 | 3410
15 | COCCN1CCN(c2ncnc(C)c2C#Cc2cnc(C)c(NS(=O)(=O)c3ccccc3)c2)CC1 [Example I-57, N-(5-{4-[4-(2-Methoxy-ethyl)-piperazin-1-yl]-6-methyl-pyrimidin-5-ylethynyl}-2-methyl-pyridin-3-yl)-benzenesulfonamide] | 0.83 | 82 | 443 | 338 | 2 | 1300
16 | Cc1ncc(C#Cc2c(C)ncnc2N(C)C(C)C)cc1NS(=O)(=O)c1ccc(F)cc1F [Example I-15, 2,4-Difluoro-N-{5-[4-(isopropyl-methyl-amino)-6-methyl-pyrimidin-5-ylethynyl]-2-methyl-pyridin-3-yl}-benzenesulfonamide] | 0.74 | 376 | 898 | 1670 | 163 | 318
17 | Cc1ncc(C#Cc2c(C)ncnc2N2CCN(C3CC3)CC2)cc1NS(=O)(=O)c1ccccc1 [Example I-58, N-{5-[4-(4-Cyclopropyl-piperazin-1-yl)-6-methyl-pyrimidin-5-ylethynyl]-2-methyl-pyridin-3-yl}-benzenesulfonamide] | 16 | 2990 | 4640 | 25000 | 1300 | 3000
